In brackets after ≈: the same amount, converted by molar mass. Read-outs that look alike come from different tables or passages of the source. Marks after values point to notes of the source that are not given here.
Legend:
[1] = human, in vivo
[2] = system: panel of common bacterial pathogens; test: Activity against a panel of common bacterial pathogens; format: cell-based
clinical = conditions: human, in vivo
[3] = mouse, in vivo
OATP1B1 = biological target: T1, OATP1B1 (Homo sapiens, UniProt Q9Y6L6); test: Direct inhibition of OATP1B1; format: in vitro ADME; conditions: in vitro
T1 sequence (Q9Y6L6 1-691): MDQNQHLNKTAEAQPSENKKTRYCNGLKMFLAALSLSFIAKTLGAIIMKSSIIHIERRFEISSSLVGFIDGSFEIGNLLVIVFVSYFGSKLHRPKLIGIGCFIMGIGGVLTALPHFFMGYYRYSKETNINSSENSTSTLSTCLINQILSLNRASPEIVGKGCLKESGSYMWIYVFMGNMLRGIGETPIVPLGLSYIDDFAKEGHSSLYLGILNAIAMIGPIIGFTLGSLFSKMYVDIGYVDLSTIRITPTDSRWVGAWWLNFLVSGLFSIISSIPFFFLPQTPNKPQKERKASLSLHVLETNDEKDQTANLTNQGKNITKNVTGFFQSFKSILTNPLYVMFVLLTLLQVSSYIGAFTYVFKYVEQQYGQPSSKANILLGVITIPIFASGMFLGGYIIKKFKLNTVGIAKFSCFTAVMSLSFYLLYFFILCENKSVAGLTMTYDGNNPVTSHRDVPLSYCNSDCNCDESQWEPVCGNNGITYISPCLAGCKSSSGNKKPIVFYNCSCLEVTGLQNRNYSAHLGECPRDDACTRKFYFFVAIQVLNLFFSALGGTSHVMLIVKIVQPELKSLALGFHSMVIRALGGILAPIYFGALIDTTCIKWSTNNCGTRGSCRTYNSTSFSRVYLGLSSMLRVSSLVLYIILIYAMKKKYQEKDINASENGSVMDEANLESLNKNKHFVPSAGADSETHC

[4] = FTIH part A: plasma pharmacokinetics after single dose; conditions: human, po
cytochrome P450s = format: in vitro ADME
[5] = biological target: M. tuberculosis enzyme leucyl-tRNA synthetase (LeuRS); design: method as in PMID 28953378; conditions: LeuRS aminoacylation assay; cited from earlier work
CYP3A4 = CYP3A4 (Homo sapiens, UniProt P08684); test: Metabolism-dependent inhibition or induction of CYP3A4; format: in vitro ADME; conditions: in vitro
CYP3A4, sequence (P08684 whole entry): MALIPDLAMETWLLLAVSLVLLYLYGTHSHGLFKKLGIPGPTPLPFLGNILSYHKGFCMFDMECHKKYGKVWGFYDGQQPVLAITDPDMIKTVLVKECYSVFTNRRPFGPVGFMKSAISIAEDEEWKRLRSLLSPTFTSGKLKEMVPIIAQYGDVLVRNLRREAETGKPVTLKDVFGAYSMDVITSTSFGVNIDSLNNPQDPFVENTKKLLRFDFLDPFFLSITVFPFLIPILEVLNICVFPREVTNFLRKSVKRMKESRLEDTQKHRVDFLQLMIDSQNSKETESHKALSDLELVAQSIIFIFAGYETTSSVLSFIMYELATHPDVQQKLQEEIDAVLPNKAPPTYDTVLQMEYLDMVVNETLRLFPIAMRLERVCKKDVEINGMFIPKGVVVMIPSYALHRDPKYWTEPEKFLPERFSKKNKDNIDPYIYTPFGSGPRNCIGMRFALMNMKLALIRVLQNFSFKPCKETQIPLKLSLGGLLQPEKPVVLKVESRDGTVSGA

[6] = Stability in pooled and spiked urine; format: physicochemical, human; conditions: multiple freeze-thaw cycles and prolonged exposure to light
[7] = system: M. tuberculosis fast-growing and slow-growing populations; test: PK/PD parameters estimated from acute and chronic mouse infection models; format: in vivo; conditions: for EC50: Mycobacterium tuberculosis
in vitro [8] = format: in vitro ADME; conditions: rat, plasma
[9] = system: M. tuberculosis bacterial strain H37Rv; design: method as in PMID 28953378; conditions: in vitro; cited from earlier work
[10] = FTIH study part A (single dose): safety and tolerability
[11] = Population PK model at completion of the study
[12] = both, human, in vivo
[13] = human, in vivo; remark: listed apart in the source
in vitro [14] = format: in vitro ADME; conditions: dog, plasma
[15] = Food effect study (part A, high-fat meal); conditions: 5 mg; for half-life: human, plasma, po, t1/2, geometric LS mean
[16] = FTIH part B: plasma pharmacokinetics and accumulation after repeat dose; conditions: human, po
[17] = human, in vivo; remark: listed apart in the source
[18] = dog, in vivo
in vitro [19] = format: in vitro ADME; conditions: mouse, plasma
in vitro [20] = format: in vitro ADME, humans; conditions: human, plasma
[21] = human, in vivo; remark: listed apart in the source

NC[C@H]1OB(O)c2c(OCCO)ccc(Cl)c21 [GSK3036656, (S)-3-(aminomethyl)-4-chloro-7-(2-hydroxyethoxy)benzo[c][1,2]oxaborol-1(3H)-ol]
Tmax difference (fed-fasted) [1]: 0.75^b h
activity against a panel of common bacterial pathogens [2]: inactivity
AUC (clinical; both, 15 mg, steady-state AUC (on average)): 4460 ng·h/mL
AUC(0-t) (clinical; po, 5 mg): 486 ng·h/mL
Cmax (clinical; po, 5 mg): 48.4 ng/mL
Cmax at 14 days (clinical; po, 5 mg): 97 ng/mL
Tmax (clinical; po, 5 mg): 1.3 h
Tmax at 14 days (clinical; po, 5 mg): 0.8 h
AUC (clinical; po, 5 mg, AUC(Ro), geometric LS mean, Ref): 486 ng·h/mL
AUC (clinical; po, 5 mg, AUC(Ro), geometric LS mean, Test): 1390 ng·h/mL
AUC (clinical; po, 5 mg, Geometric mean AUC0–τ (%CVb)): 1390 ng·h/mL
AUC(0-t) (clinical; po, 15 mg): 1890 ng·h/mL
Cmax (clinical; po, 15 mg): 179 ng/mL
Cmax at 14 days (clinical; po, 15 mg): 310 ng/mL
Tmax at 14 days (clinical; po, 15 mg): 0.8 h
AUC (clinical; po, 15 mg, AUC(Ro), geometric LS mean, Ref): 1890 ng·h/mL
AUC (clinical; po, 15 mg, AUC(Ro), geometric LS mean, Test): 4460 ng·h/mL
AUC (clinical; po, 15 mg, Geometric mean AUC0–τ (%CVb)): 4460 ng·h/mL
oral bioavailability [3]: very high
direct inhibition of OATP1B1 (OATP1B1): minimal evidence for direct inhibition
half-life ([4]; both, 5 mg): 40.9 h
half-life ([4]; both, 15 mg): 28.4 h
half-life ([4]; 25 mg): 49.9 h
direct inhibition of cytochrome P450s (cytochrome P450s): minimal evidence for direct inhibition
50% inhibitory concentration (IC50) [5]: 0.0588 µg/mL
metabolism-dependent inhibition or induction of CYP3A4 (CYP3A4): no evidence
stability in pooled and spiked urine [6]: degraded to GSK3635633
EC50 ([7]; fast-growing population, SE = 13%, read-out: EC50-F in mouse): 0.0156 µg/mL (≈ 0.0606 µM)
EC50 ([7]; slow-growing population, SE = 23%, read-out: EC50-S in mouse): 0.0317 µg/mL (≈ 0.123 µM)
Emax-S (maximum killing rate against a slow-growing population) ([7]; fixed to estimated value from mouse infection models): 0.0037 (FIX)^b h^−1
fraction unbound (in vitro [8]): 0.688
MIC [9]: 0.0235 µg/mL (≈ 0.0913 µM)
No. (%) of subjects with AE: Musculoskeletal chest pain ([10]; single dose 5 mg (n = 6)): 0 No. (%)
No. (%) of subjects with AE: Musculoskeletal chest pain ([10]; single dose 5 mg, fed (n = 5)): 0 No. (%)
No. (%) of subjects with AE: Musculoskeletal chest pain ([10]; single dose 15 mg (n = 6)): 0 No. (%)
No. (%) of subjects with AE: Musculoskeletal chest pain ([10]; single dose 25 mg (n = 6)): 1 (17) No. (%)
CL/F, bootstrap median estimate ([11]; bootstrap (1,000 runs)): 3.7 L/h
IIV Q/F, bootstrap median estimate ([11]; bootstrap (1,000 runs)): 26.5
IIV V2/F, bootstrap median estimate ([11]; bootstrap (1,000 runs)): 107
IIV V3/F, bootstrap median estimate ([11]; bootstrap (1,000 runs)): 22.9
Q/F, bootstrap median estimate ([11]; bootstrap (1,000 runs)): 63.1 L/h
V2/F, bootstrap median estimate ([11]; bootstrap (1,000 runs)): 15.9 L
V3/F, bootstrap median estimate ([11]; bootstrap (1,000 runs)): 149 L
CL/F, estimate (%SE) ([11]; final population PK model): 3.69 (3) liters/h
Q/F, estimate (%SE) ([11]; final population PK model): 63 (15) liters/h
V2/F, estimate (%SE) ([11]; final population PK model): 14.9 (30) liters
V3/F, estimate (%SE) ([11]; final population PK model): 150 (6) liters
IIV Q/F, estimate (%SE) ([11]; random effects, final model): 27.3 (37)
IIV V2/F, estimate (%SE) ([11]; random effects, final model): 111 (37)
IIV V3/F, estimate (%SE) ([11]; random effects, final model): 23.3 (30)
dose-proportionality slope, AUC0–t [12]: 1.32
dose-proportionality slope, Cmax and AUC0–∞ [12]: 0.96
dose-proportionality slope, Cmax ([13]; both): 1.19
steady-state AUC relative to the target exposure for efficacy in humans (1,740 ng · h/ml) ([13]; both): approximately 2.5 fold
accumulation of Cmax and AUC0–τ with repeated administration ([13]; both, 14 days): 2-3 fold
dose-proportionality slope, Cmax ([13]; both, 14 days): 1.06
RoCmax, geometric LS mean, Ref ([13]; 5 mg): 48.40 ng/mL
RoCmax, geometric LS mean, Test ([13]; 5 mg): 97.04 ng/mL
RoCmax, geometric LS mean, Ref ([13]; 15 mg): 178.79 ng/mL
RoCmax, geometric LS mean, Test ([13]; 15 mg): 309.55 ng/mL
fraction unbound (in vitro [14]): 0.76
t1/2 ratio ([15]; fed vs fasted): 0.89
half-life ([15]; Ref, 5 mg fasted, n = 6): 38.6 h
half-life ([15]; Test, 5 mg fed, n = 5): 34.4 h
half-life at 14 days ([16]; 5 mg): 44 h
half-life at 14 days ([16]; 15 mg): 37 h
Absorption lag time, bootstrap median estimate [17]: 0.24 h
Absorption lag time, estimate (%SE) [17]: 0.235 (3) h
Ka, bootstrap median estimate [17]: 0.95 h⁻¹
Ka, estimate (%SE) [17]: 0.925 (23) h^−1
Residual variability (Prop), bootstrap median estimate [17]: 12.6%
Residual variability (Prop), estimate (%SE) [17]: 12.9 (16) %
oral bioavailability [18]: very high
fraction unbound (in vitro [19]): 0.792
fraction unbound (in vitro [20]): 0.838
Total % dose (drug-related material) in pooled urine [21]: 50 % dose

Reference: paper PMC6658769, “First-Time-in-Human Study and Prediction of Early Bactericidal Activity for GSK3036656, a Potent Leucyl-tRNA Synthetase Inhibitor for Tuberculosis Treatment” (Antimicrobial Agents and Chemotherapy, 2019)
